Reference: patent publication US8178118B2, “Magnesium compositions and uses thereof for cognitive function” (Magceutics, Inc., priority 2007, dated 2012)

Assays:
[1] = magnesium absorption rate in rats (intake versus fecal excretion, ICP-AES); details: FIG. 4, Example 5, Mg gluconate in skim milk or water with 5 weight percent lactose, MgCl2 in water
Method: Fifty 3-month old, male Sprague Dawley (SD) rats were divided into five groups of ten rats. Rats of this age and older are considered adult. Each of the rats was placed in a separate metabolic cage equipped with urine- and feces-collecting wells. All of the rats were maintained in a temperature-controlled room (22° C. to 25° C.) with a dark period from 08:00 pm to 08:00 am daily. From day 1 through day 3, each rat was fed daily 15 g of magnesium-free food and de-ionized water. […] The medium was skim milk for Composition 1 and Group 1, milk prepared from powdered milk, by diluting the powdered milk with water to obtain a composition like that of skim milk, for Composition 2 and Group 2, 1% milk cream in water for Composition 3 and Group 3, water comprising 5 weight percent lactose for Composition 4 and Group 4, and water for the Control Composition and Control Group. […]
From day 4 through day 10, urine from each rat was collected daily. The collected urine from each rat was then pooled together and the total volume of the pooled urine from each rat was recorded. The pooled urine from each rat, in an amount of […], was analyzed for magnesium content using an inductively coupled plasma-atomic emission spectrometer (ICP-AES). […] The pooled feces from each rat, in an amount of 0.5 g, were analyzed for magnesium content using an ICP-AES. […]

[2] = tested on: young, aging and aged rats
Method: Twenty 2-month old, male Sprague Dawley (SD) rats were housed in a temperature-controlled room (22° C. to 25° C.) with a dark period from 08:00 pm to 08:00 am daily. […] Over 7 days before the training and trial period began, each rat was handled and habituated to the maze and to Kellogg's Froot Loop cereal.
Each rat underwent a test of one trial, followed by an interval of 10-minutes, followed by another trial, and so on, for a total of 6 trials in one day. In each trial, each rat went through a sample run in the maze, followed by an interval of 15 seconds, followed by a choice run in the maze. In the sample run, the subject rat was forced to go to the left or to the right by the presence of a block, according to a pseudorandom sequence (with an equal number of left turns and right turns, and no more than two consecutive turns in the same direction). As a reward, Froot Loop cereal was available in the food well at the end of the run, regardless of the direction that was taken by virtue of the block. In the choice run, the block that had been present in the preceding sample run was removed, and the rat was allowed to choose to go to the left or to the right. As a reward, Froot Loop cereal was available in the food well at the end of the run, only when the rat had made a “correct choice” by choosing the direction opposite that taken in the preceding sample run. […]
On the first day (designated day 0) of the feeding of the two groups, as just described, each rat underwent a preliminary test of one trial, followed by an interval of 10 minutes, followed by another trial, and so on, for a total of 4 trials in one day. […] In this preliminary test, the choice accuracy level, or ratio of correct choices made, co, to the number of number of trials in the test, no, was determined for each rat. […]
Three groups of animals (young, aging, and magnesium-treated aging rats) were used. […] Spatial working memory was assessed using a T-maze non-matching-to-place task. […] Spatial working memory was first assessed on an elevated T-maze. […]

rats = test: novel object recognition test in rats; type: in vivo, rat
Method: In this example, the effect of magnesium supplementation on recognition memory was tested. Three groups of rats were used in these experiments: 1) young rats (three months old); aging rats (12-14 months old), and; 3) magnesium-treated aging rats (12-14 months old, diet supplemented with 6 mg/kg MgCl2 from 8 months of age). We used experimentally naive, female, Sprague-Dawley young […], aging (12-14 month old) and […] rats (Charles River) at the beginning of the behavior experiments. They were housed two per cage with continuous access to food and water under a 12:12 light-dark cycle, with light onset at 8:00 a.m. […] All experiments involving animals were approved by the Massachusetts Institute of Technology's and Tsinghua University Committees on Animal Care.
The three groups of rats were tested for recognition memory using an object recognition test with a single exposure to the object during training. The task is based on the natural tendency of rodents to explore new objects and tests the animals' memory capacity for distinguishing novel versus familiar objects.
Briefly, the rats were first individually habituated to the personnel and then to open-field arena during 2 weeks. […] The retention intervals were 10 min and 24 hours. Objects were cleaned thoroughly between trials with 20% ethanol solution to ensure the absence of olfactory cues. The particular objects for a given trial were randomly determined, but each object was used for only one trial per rat. Memory of the familiar object is associated with increased exploration of the new object and an exploration index (% correct) is calculated as new object inspection time/30.
In this example, the effect of magnesium supplementation on memory consolidation was studied. […]
Briefly, the rats were first individually habituated to the personnel and then to open-field arena during 2 weeks. […] The particular objects for a given trial were randomly determined, but each object was used for only one trial per rat. […]

diabetic patients = details: nearly 1 g of magnesium daily for 1 month; cited from earlier work
[3] = tested on: mice genetically altered to present symptoms of Alzheimer's disease (AD); test: modified Morris water maze test in AD mice; type: in vivo, mouse; details: AD mice aged 13 months, FIG. 16
Method: Another group, the control group, of 10 mice that were genetically altered to present symptoms of AD were fed a Control Diet, a diet of normal solid food and water, for 30 days.
The pool used was a pool of water in a circular metal tank (150 cm in diameter and 50 cm in depth) having a water height of 30 cm and a water temperature that was maintained at ˜22° C. The pool was placed in a moderately lit area and surrounded by a black curtain. An acrylic platform (15 cm in diameter) was placed 2 cm below the surface of the water in the middle of one quadrant of the pool, equidistant from the center and the edge of the pool. Outside the pool, a cue was placed so as to be visible to a mouse in the maze, allowing a mouse to use it as a landmark for spatial orientation. The cue remained unchanged throughout the test period.
On the first day of the training and testing period, the water in the pool was transparent, such that the platform was visible. Each mouse was trained to swim towards the platform and to stand on the platform so as not to be submerged in the pool. […] The amount of time the mouse took to find the platform, referred to as “escape latency,” was recorded for each trial.
On the second day of the training and testing period, a small quantity of milk was added to the water in the pool, such that the pool was opaque and the platform was no longer visible. […]

[4] = brain (brainstem) magnesium concentration in AD mice, ICP-OES; type: in vivo, mouse; details: AD mice on magnesium diet from 5 month to 21 month of age, FIG. 26A
AD mice = test: physical motility (swimming speed) during water maze test; type: in vivo, mouse; details: 7 months and 15 months of treatment, FIG. 21
Method: The swimming speed of each mice is calculated from off-analysis.

With `[Cl-].[Cl-].[Mg+2]` [MgCl2, magnesium chloride] the “magnesium absorption rate of the higher dosage compositions (magnesium loading capacity)” value [1] was “less desirable”, the “asymptotic choice accuracy level after 8 days of training” value ([2]; all three groups (young, aging, magnesium-treated aging rats)) was roughly 94% and the “learning in non-matching-to-place task, 15 sec delay” value ([2]; magnesium-treated aging rats versus aging rats, p<0.05) was “performed significantly better from their first trials”. The “spatial working memory with increased delay between sample and choice trials” value ([2]; magnesium-treated aging rats, p<0.05) was “significantly enhanced the performance of the aging rats at 2 and 5 min delays”, the “novel object exploration preference, 10 minute retention interval” value (rats; aging rats (12-14 months old), 6 mg/kg MgCl2 from 8 months of age, single exposure training, P<0.0001) was “preferentially explored the novel object to the same extent as young rats” and the “ability to distinguish novel versus familiar objects after 24 hours” value (rats; aging rats, single exposure training, all groups) was “lose there ability to distinguish novel versus familiar objects”. The “preference for the novel object, 24-hour retention interval after spaced training” value (rats; two training sessions separated by 10 minutes, magnesium-treated aging rats) was “retained a high level of preference”.

In the case of `[O]=[Mg]` [magnesium oxide], the “increase of serum magnesium level” value (diabetic patients) is listed as “about 10%” and the metabolic control (diabetic patients) is listed as “only minor improvement in metabolic control”.

For `CC12CC3CC(C)(C1)CC(N)(C3)C2` [memantine], the “reduction of the effects of AD on learning capacity” value [3] was “better at reducing the effects of AD on learning capacity than aricept”.

For magnesium, the “relation of magnesium intake to brain magnesium” value [4] was “linearly correlated to the amount of brain magnesium” and the “mobility during the water maze test” value (AD mice) was “greatly increased mobility”.

With magnesium gluconate the “magnesium absorption rate of the higher dosage compositions (magnesium loading capacity)” value [1] was “suitably close to those associated with the lower dosage compositions”.
